Laboratory results taken from US4234581A, “Thieno[2,3-d]oxazines” (Mead Johnson & Company, priority 1979, dated 1980).
Where a name gives a salt, the structure may show the parent alone. Read-outs that look alike come from different tables or passages of the source.

Tests used:
[1] = tested on: passive cutaneous anaphylaxis reaction (PCA) in the rat; assay: passive cutaneous anaphylaxis reaction (PCA) in the rat; format: in vivo
Protocol: Activity of test compounds in the passive cutaneous anaphylaxis reaction (PCA) in the rat has been shown in the prior art to correlate with the utility of active compounds in the treatment of immediate hypersensitivity conditions such as asthma. Rat reaginic antiserum is prepared substantially according to the method of Mota, Immunology 7, 681-699 (1964) employing male Sprague-Dawley (Carworth Farms) or Wistar (Harlan) rats weighing 100-175 g. which are injected intramuscularly with a solution of egg albumin in saline at a dose of 10 mg. per kg. and intraperitoneally with 2×10^10 Bordetella pertussis organisms. Twelve days after injection, the serum is collected and the antibody titer is determined. The sera are pooled which contain sufficient antibody to cause a 10 mm. spot in the dorsal skin of the rat in the PCA test after dilution 10 fold. The highest dilution of antiserum capable of inducing PCA in the rat 48 to 72 hrs. after injection is normally in the range of 50-80. The selected reaginic anti-sera are stored frozen until use.
For carrying out the test, groups of 5 to 10 male Sprague-Dawley (Carworth Farms) rats, each rat weighing 100-150 g., are used. Forty-eight hours prior to the test, the animals are passively sensitized by intradermal injection of 0.1 ml. of diluted antiserum at various locations on the shaved skin of the back. A dilution of antiserum is used so that a spot following challenge of 20-25 mm. in diameter is obtained. […] A latent period of 48 hrs. is usually allowed before the animals are challenged. According to the usual screening procedure, 15 min. prior to challenge the test drug is administered either by intraperitoneal injection, intravenous injection, or orally by gavage. Challenge involves an intravenous injection of a dose of 25 mg./kg. of egg albumin and 25 mg./kg. of Evans' blue dye in saline. The dye serves simply as a marker. The response of the antigen challenge in the localities on the skin which have been previously sensitized results in increased capillary permeability at the sensitized site and leakage of the blue dye into the area surrounding the sensitized site. The PCA response is scored by measuring the mean spot diameter on the excised and reversed skin 20-30 min. after challange. In each experiment a group of control animals receiving no drug is employed. The percent inhibition of the PCA is calculated by determining the mean diameters of the spots in the control and treated animals and computing the difference between the squares of the mean diameters of the control animals and the treated animals and expressing this difference as a percentage of the square of the mean diameter of the control animals. Results are expressed as percent inhibition.
Rats may be injected intradermally with 0.1 ml. of a solution containing 1 mg./ml. histamine 10 min. prior to sacrificing. This permits a determination of whether the test compound is exerting an antihistaminic effect on the end organ rather than interfering with mediator release from the mast cells in inhibiting the PCA.
Various doses of test compound in parallel experiments are employed when a dose response curve is to be constructed for quantitative comparison of potencies among active compounds. The ID50, the dose at which 50% inhibition of the PCA occurs, is determined by interpolation. In other modifications, various time intervals are allowed between drug treatment and challenge to ascertain the duration of drug effect.

[2] = tested on: immunologically induced bronchoconstriction; assay: allergic respiratory model in the rat (immunologically induced bronchoconstriction); format: in vivo; settings: for ED50: 0.25 h, intraduodenal 15 min. prior to egg albumin challenge, half maximal response (ID1/2 max.), table titled Oral
[3] = tested on: passively sensitized rat peritoneal mast cells; assay: antagonism of antigen-induced histamine release from passively sensitized rat peritoneal mast cells; format: cell-based; settings: in vitro; for IC50: Mast cell, egg albumin antigen challenge
From the text: The method employed is similar to that described by Kusner, et al., Journal of Pharmacology and Experimental Therapeutics 184, 41-46 (1973). The test involves isolation of mast cells from the rat by lavage of the peritoneal cavity and isolation of the cellular material from the lavage fluid. The cells are sensitized by shaking in antiserum from rats sensitized as described above with respect to the passive cutaneous anaphylaxis test. The sensitized cells are then exposed to the egg albumin antigen and the release of histamine from the cells is measured by an automated fluorometric method. The inhibition of histamine release by the presence of a test compound during challenge of the sensitized cells is a measure of the activity of the test compound. Dose response curves are prepared employing various concentrations of the test substance and the concentration which inhibits histamine release by 50% (IC50) is determined by interpolation.

[4] = Acute oral toxicity in the rat; settings: in vivo
From the text: | *Acute oral toxicity in the rat.

[5] = 0.25 h, oral, rat, drug 15 min. prior to challenge, 50% inhibition of PCA, read-out: PCA Response (ID50, mg./kg.)
[6] = range for Procedures 2, 3 and 36, read-out: IC50, inhibition of histamine release
[7] = Rat2, oral, rat, 2 hr. interval between drug dosage and challenge, read-out: PCA Response (ID50, mg./kg.)

With O=C(O)c1cc(=O)c2c(OCC(O)COc3cccc4oc(C(=O)O)cc(=O)c34)cccc2o1 [Cromolyn sodium, reference compound] the ED50 ([1]; intravenous, simultaneously with the antigen, rat, read-out: ID50 in the rat PCA test) was about 1 mg/kg, the “activity on oral administration in PCA test” value ([1]; oral, rat) was “inactive” and the “activity on oral administration in allergic respiratory test” value ([2]; oral) was “inactive”. The IC50 ([3]; read-out: IC50, inhibition of histamine release) was 1 µM.
With CCOC(=O)c1nc2sc3c(c2c(=O)[nH]1)CCCC3 [Procedure 2, ETHYL 3,4,5,6,7,8-HEXAHYDRO-4-OXOBENZOTHIENO[2,3-d]PYRIMIDINE-2-CARBOXYLATE] the ED50 [1, 5] was 15.4 mg/kg, the ED50 [2] was 3.8 mg/kg and the LD50 [4] was over 3160 mg/kg. The IC50 [3, 6] was 0.3 to 0.8 µM and the “potency in histamine release test relative to cromolyn sodium” value [3] was “substantially more potent than cromolyn sodium”.
With O=C(O)c1nc2sc3c(c2c(=O)[nH]1)CCCC3 [Procedure 3, 3,4,5,6,7,8-HEXAHYDRO-4-OXOBENZOTHIENO[2,3-d]-PYRIMIDINE-2-CARBOXYLIC ACID DISODIUM SALT DIHYDRATE] the IC50 [3, 6] was 0.3 to 0.8 µM and the “potency in histamine release test relative to cromolyn sodium” value [3] was “substantially more potent than cromolyn sodium”.
Compound CCOC(=O)c1nc2sc(CC)c(C)c2c(=O)[nH]1 [Procedure 27, ETHYL 6-ETHYL-3,4-DIHYDRO-5-METHYL-4-OXOTHIENO[2,3-d]PYRIMIDINE-2-CARBOXYLATE] has an ED50 [1, 5] of 11.4 mg/kg.
Work on CCOC(=O)c1nc2sc(CC(C)C)c(C)c2c(=O)[nH]1 [Procedure 28, ETHYL 3,4-DIHYDRO-5-METHYL-6-(2-METHYLPROPYL)-4-OXOTHIENO[2,3-d]PYRIMIDINE-2-CARBOXYLATE] yielded an ED50 [1, 5] of under 5 mg/kg.
CCOC(=O)c1nc2sc(CC)cc2c(=O)[nH]1 [Procedure 29, ETHYL 6-ETHYL-3,4-DIHYDRO-4-OXOTHIENO[2,3-d]PYRIMIDINE-2-CARBOXYLATE] gave an ED50 [1, 5] of 3.1 mg/kg, an ED50 [2] of 1 mg/kg and an LD50 [4] of 1600 to 5000 mg/kg.
In the case of CCCCCCc1sc2nc(C(=O)O)[nH]c(=O)c2c1C [Procedure 36, 6-HEXYL-3,4-DIHYDRO-5-METHYL-4-OXOTHIENO[2,3-d]PYRIMIDINE-2-CARBOXYLIC ACID DISODIUM SALT HYDRATE], the ED50 [1, 5] is reported as 15 mg/kg, the IC50 [3, 6] is reported as 0.3 to 0.8 µM and the “potency in histamine release test relative to cromolyn sodium” value [3] is reported as “substantially more potent than cromolyn sodium”.
Compound Cc1c(CC(C)C)sc2nc(C(=O)O)[nH]c(=O)c12 [Procedure 43, 3,4-DIHYDRO-5-METHYL-6-(2-METHYLPROPYL)-4-OXOTHIENO[2,3-d]PYRIMIDINE-2-CARBOXYLIC ACID DISODUM SALT SESQUIHYDRATE] has an ED50 [1, 5] of 6.7 mg/kg.
In the case of CCc1cc2c(=O)[nH]c(C(=O)O)nc2s1 [Procedure 44, 6-ETHYL-3,4-DIHYDRO-4-OXOTHIENO[2,3-d]PYRIMIDINE-2-ARBOXYLIC ACID DISODIUM SALT DIHYDRATE], the ED50 [1, 5] is reported as 13 mg/kg.
In the case of Cc1c(CC(C)C)sc2nc(CO)[nH]c(=O)c12 [Procedure 53, 2-(HYDROXYMETHYL)-5-METHYL-6-(2-METHYLPROPYL)THIENO[2,3-d]PYRIMIDINE-4-(3H)-ONE], the ED50 [1, 7] is reported as 28 mg/kg.
With O=c1[nH]c(CO)nc2sc3c(c12)CCCC3 [Procedure 55, 5,6,7,8-TETRAHYDRO-2-(HYDROXYMETHYL)BENZOTHIENO[2,3-d]-4(3H)-PYRIMIDINONE] the ED50 [1, 7] was 34 mg/kg.
With CCCCCCc1sc2nc(CO)[nH]c(=O)c2c1C [Procedure 56, 6-HEXYL-2-(HYDROXYMETHYL)-5-METHYLTHIENO[2,3-d]PYRIMIDINE-4-(3H)-ONE] the ED50 [1, 5] was 28 mg/kg.
In the case of CCOC(=O)C(=O)Nc1sccc1C(N)=O [Procedure 83, Ethyl N-[3-(Aminocarbonyl)thien-2-yl]oxamate], the ED50 ([1]; oral, rat, read-out: oral ED50 in the rat PCA test for antiallergic activity) is reported as 4.5 mg/kg.
In the case of Cc1c(CC(C)C)sc2nc(C(=O)O)[nH]c(=O)c12 [Procedure 97, 3,4-Dihydro-5-methyl-6-(2-methylpropyl)-4-oxothieno[2,3-d]pyrimidine-2-carboxylic Acid Dipotassium Salt], the ED50 ([1]; Rattus norvegicus, intravenous, rats, read-out: ID50 in the PCA test, intravenous) is reported as 0.14 mg/kg and the ED50 ([1]; Rattus norvegicus, oral, rats, read-out: ID50 in the PCA test, oral) is reported as 2.7 mg/kg.
